Source: ChEMBL document CHEMBL5329209, “Designing photoaffinity tool compounds for the investigation of the DENV NS2B-NS3 protease allosteric binding pocket” (RSC Med Chem, 2023)

target: T1, Genome polyprotein (dengue virus type 2, UniProt P29990); experiment: Inhibition of DENV2 NS2B-NS3 protease using Boc-Gly-Arg-Arg-AMC as substrate by fluorometric analysis; details: not given
T1 sequence (P29990 1346-1475 limits assumed): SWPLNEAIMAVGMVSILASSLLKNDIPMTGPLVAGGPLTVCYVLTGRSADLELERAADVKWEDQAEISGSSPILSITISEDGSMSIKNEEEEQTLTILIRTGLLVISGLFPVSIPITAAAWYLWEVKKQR
T1 sequence (P29990 1476-2093 limits assumed): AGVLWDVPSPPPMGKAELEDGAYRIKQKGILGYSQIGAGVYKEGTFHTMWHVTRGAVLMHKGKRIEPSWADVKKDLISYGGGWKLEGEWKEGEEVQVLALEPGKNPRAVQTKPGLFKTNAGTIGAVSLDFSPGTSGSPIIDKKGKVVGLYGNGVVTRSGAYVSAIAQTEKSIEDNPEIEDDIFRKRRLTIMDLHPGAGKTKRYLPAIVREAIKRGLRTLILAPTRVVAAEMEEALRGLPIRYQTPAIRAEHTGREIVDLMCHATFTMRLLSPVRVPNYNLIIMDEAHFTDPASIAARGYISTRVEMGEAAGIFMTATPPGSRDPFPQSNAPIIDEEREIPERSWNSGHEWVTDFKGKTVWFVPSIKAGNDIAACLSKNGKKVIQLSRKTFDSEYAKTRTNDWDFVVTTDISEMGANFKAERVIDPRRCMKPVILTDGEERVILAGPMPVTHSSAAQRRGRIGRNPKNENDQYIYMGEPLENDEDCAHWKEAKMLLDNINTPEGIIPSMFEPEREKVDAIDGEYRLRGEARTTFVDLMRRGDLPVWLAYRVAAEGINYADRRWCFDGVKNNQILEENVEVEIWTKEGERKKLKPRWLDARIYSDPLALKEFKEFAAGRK

SMILES | IC50
CC1OCCC1SSC[C@@H](NC(=O)c1ccc(C2(C(F)(F)F)N=N2)cc1)C(=O)Nc1nc2cc(O)c(O)cc2s1 (stereo partly specified) | 20 µM
O=C(Nc1nc2cc(O)c(O)cc2s1)c1ccc(C2(C(F)(F)F)N=N2)cc1 | 9.97 µM
O=C(CN(CC1CC2C=CC1C2)C(=O)c1ccc(C2(C(F)(F)F)N=N2)cc1)Nc1nc2cc(O)c(O)cc2s1 (stereo unspecified) | 17 µM
O=C(N[C@H](CS)C(=O)Nc1nc2cc(O)c(O)cc2s1)c1ccc(C2(C(F)(F)F)N=N2)cc1 | 13.4 µM
CC(C)(C)SSC[C@@H](NC(=O)c1ccc(C2(C(F)(F)F)N=N2)cc1)C(=O)Nc1nc2cc(O)c(O)cc2s1 | 10.2 µM

target: T1, Genome polyprotein; experiment: Binding affinity to N terminal hexa histidine tagged DENV2 NS2B-NS3 protease assessed as apparent Ki by Dixon plot analysis; details: read-out: Ki(app)

SMILES | Ki
O=C(Nc1nc2cc(O)c(O)cc2s1)c1ccc(C2(C(F)(F)F)N=N2)cc1 | 6.32 µM
